Key:
[1] = system: rodents; conditions: 10 mg/kg; cited from earlier work
[2] = system: rats; test: Precipitated withdrawal from morphine; assay type: in vivo
[3] = Diastolic blood pressure (vital signs)
Protocol: The Investigational Medicinal Product (IMP) R(−)-ketamine hydrochloride in sterile water for intravenous injection was investigated as an […] treatment of TRD. The International Union of Pure and Applied Chemistry (IUPAC) name is of the IMP is (2R)-2-(2-chlorophenyl)-2-(methylamino)cyclohexan-1-one. Subjects received the solution at either 30 mg or 60 mg dose, or a placebo. The IMP or placebo was administered on Day 1 as a single IV infusion via an electronic infusion pump over 40 minutes. The duration of study participation for each subject was up to 29 days including a screening period, a 3-day in-clinic visit, and 2 follow-up visits. 101 subjects were enrolled in approximately 20 study centers in the EU and the US.
Tympanic or temporal temperature, heart rate, blood pressure (SBP/DBP), respiratory rate, and SpO2 were assessed. Blood pressure and pulse measurements will be assessed with a completely automated device while the subject is supine or semi-supine. Manual techniques will be used only if an automated device is not available. Blood pressure and pulse measurements should be preceded by at least 5 minutes of rest for the subject in a quiet setting without distractions (e.g., television, cell phones). An abnormal blood pressure value at screening may be repeated once after 5 minutes of relaxation to determine the subject's eligibility. Blood pressure was recorded using the same arm and position (supine or semi-supine) throughout the study, where possible. Vital signs (to be taken before blood collection for laboratory tests) consisted of 1 pulse and 3 blood pressure measurements (3 consecutive blood pressure readings will be recorded at intervals of at least 1 minute). The average of the 3 blood pressure readings was recorded in the CRF. A pulse oximeter was used to measure peripheral capillary oxygen saturation (SpO2) continuously from pre-dose until 4-hours post-dose. A pulse oximeter was clipped onto the finger or foot of the subject, and light will be sent through the finger or foot and measured on the other side.
In these tables, baseline value is defined as the last non-missing value prior to study drug administration.

Compound: CN[C@@]1(c2ccccc2Cl)CCCCC1=O.Cl [R(−)-ketamine, (2R)-2-(2-chlorophenyl)-2-(methylamino)cyclohexan-1-one]
- Antidepressant effect compared with S(+)-ketamine [1]: longer acting and more potent effects than S(+)-ketamine
- Effect on symptoms of precipitated withdrawal from morphine [2]: significantly ameliorated the symptoms of precipitated withdrawal from morphine
- Subjects with change from baseline diastolic blood pressure >25 mmHg, number ([3]; 30 mg): 1 n
- Subjects with change from baseline diastolic blood pressure >25 mmHg, percent ([3]; 30 mg): 3.0%
- Subjects with post-baseline diastolic blood pressure >110 mmHg, number ([3]; 30 mg): 0 n
- Subjects with post-baseline diastolic blood pressure >110 mmHg, percent ([3]; 30 mg): 0.0%
- Diastolic Blood Pressure: Mean ([3]; 30 mg, Day 1, 15 minutes): 77.4 mmHg
- Diastolic Blood Pressure: Median ([3]; 30 mg, Day 1, 15 minutes): 79.0 mmHg
- Diastolic Blood Pressure: Mean ([3]; 30 mg, Day 1, 40 minutes): 77.7 mmHg
- Diastolic Blood Pressure: Median ([3]; 30 mg, Day 1, 40 minutes): 81.0 mmHg
- Diastolic Blood Pressure: Mean ([3]; 30 mg, Day 1, 60 minutes): 75.4 mmHg
- Diastolic Blood Pressure: Median ([3]; 30 mg, Day 1, 60 minutes): 75.0 mmHg
- Diastolic Blood Pressure: Mean ([3]; 30 mg, Day 1, 2 hours): 77.3 mmHg
- Diastolic Blood Pressure: Median ([3]; 30 mg, Day 1, 2 hours): 78.0 mmHg
- Diastolic Blood Pressure: Mean ([3]; 30 mg, Day 1, 4 hours): 76.1 mmHg
- Diastolic Blood Pressure: Median ([3]; 30 mg, Day 1, 4 hours): 76.0 mmHg
- Diastolic Blood Pressure: Mean ([3]; 30 mg, Day 1, 6 hours): 75.2 mmHg
- Diastolic Blood Pressure: Median ([3]; 30 mg, Day 1, 6 hours): 75.0 mmHg
- Diastolic Blood Pressure: Mean ([3]; 30 mg, Day 2 - Discharge): 74.7 mmHg
- Diastolic Blood Pressure: Median ([3]; 30 mg, Day 2 - Discharge): 75.0 mmHg
- Diastolic Blood Pressure: Mean ([3]; 30 mg, Day 8): 75.8 mmHg
- Diastolic Blood Pressure: Median ([3]; 30 mg, Day 8): 78.0 mmHg
- Diastolic Blood Pressure: Mean ([3]; 30 mg, Day 15): 78.9 mmHg
- Diastolic Blood Pressure: Median ([3]; 30 mg, Day 15): 79.0 mmHg
- Diastolic Blood Pressure: Change from Baseline, Mean ([3]; 30 mg, to Day 1, 15 minutes): 0.5 mmHg
- Diastolic Blood Pressure: Change from Baseline, Median ([3]; 30 mg, to Day 1, 15 minutes): 2.0 mmHg
- Diastolic Blood Pressure: Change from Baseline, Mean ([3]; 30 mg, to Day 1, 40 minutes): 1.0 mmHg
- Diastolic Blood Pressure: Change from Baseline, Median ([3]; 30 mg, to Day 1, 40 minutes): 1.0 mmHg
- Diastolic Blood Pressure: Change from Baseline, Mean ([3]; 30 mg, to Day 1, 60 minutes): −1.2 mmHg
- Diastolic Blood Pressure: Change from Baseline, Median ([3]; 30 mg, to Day 1, 60 minutes): −1.5 mmHg
- Diastolic Blood Pressure: Change from Baseline, Mean ([3]; 30 mg, to Day 1, 2 hours): 0.5 mmHg
- Diastolic Blood Pressure: Change from Baseline, Median ([3]; 30 mg, to Day 1, 2 hours): −1.0 mmHg
- Diastolic Blood Pressure: Change from Baseline, Mean ([3]; 30 mg, to Day 1, 4 hours): −0.6 mmHg
- Diastolic Blood Pressure: Change from Baseline, Median ([3]; 30 mg, to Day 1, 4 hours): −1.0 mmHg
- Diastolic Blood Pressure: Change from Baseline, Mean ([3]; 30 mg, to Day 1, 6 hours): −1.5 mmHg
- Diastolic Blood Pressure: Change from Baseline, Median ([3]; 30 mg, to Day 1, 6 hours): −3.0 mmHg
- Diastolic Blood Pressure: Change from Baseline, Mean ([3]; 30 mg, to Day 2 - Discharge): −2.0 mmHg
- Diastolic Blood Pressure: Change from Baseline, Median ([3]; 30 mg, to Day 2 - Discharge): −2.0 mmHg
- Diastolic Blood Pressure: Change from Baseline, Mean ([3]; 30 mg, to Day 8): −1.0 mmHg
- Diastolic Blood Pressure: Change from Baseline, Median ([3]; 30 mg, to Day 8): −1.0 mmHg
- Diastolic Blood Pressure: Change from Baseline, Mean ([3]; 30 mg, to Day 15): 2.1 mmHg
- Diastolic Blood Pressure: Change from Baseline, Median ([3]; 30 mg, to Day 15): 1.0 mmHg
- Subjects with change from baseline diastolic blood pressure >25 mmHg, number ([3]; 60 mg): 1 n
- Subjects with change from baseline diastolic blood pressure >25 mmHg, percent ([3]; 60 mg): 2.9%
- Subjects with post-baseline diastolic blood pressure >110 mmHg, number ([3]; 60 mg): 0 n
- Subjects with post-baseline diastolic blood pressure >110 mmHg, percent ([3]; 60 mg): 0.0%
- Diastolic Blood Pressure: Mean ([3]; 60 mg, Day 1, 15 minutes): 78.8 mmHg
- Diastolic Blood Pressure: Median ([3]; 60 mg, Day 1, 15 minutes): 79.5 mmHg
- Diastolic Blood Pressure: Mean ([3]; 60 mg, Day 1, 40 minutes): 78.1 mmHg
- Diastolic Blood Pressure: Median ([3]; 60 mg, Day 1, 40 minutes): 78.0 mmHg
- Diastolic Blood Pressure: Mean ([3]; 60 mg, Day 1, 60 minutes): 79.5 mmHg
- Diastolic Blood Pressure: Median ([3]; 60 mg, Day 1, 60 minutes): 77.0 mmHg
- Diastolic Blood Pressure: Mean ([3]; 60 mg, Day 1, 2 hours): 75.7 mmHg
- Diastolic Blood Pressure: Median ([3]; 60 mg, Day 1, 2 hours): 75.0 mmHg
- Diastolic Blood Pressure: Mean ([3]; 60 mg, Day 1, 4 hours): 75.1 mmHg
- Diastolic Blood Pressure: Median ([3]; 60 mg, Day 1, 4 hours): 74.0 mmHg
- Diastolic Blood Pressure: Mean ([3]; 60 mg, Day 1, 6 hours): 75.8 mmHg
- Diastolic Blood Pressure: Median ([3]; 60 mg, Day 1, 6 hours): 76.5 mmHg
- Diastolic Blood Pressure: Mean ([3]; 60 mg, Day 2 - Discharge): 77.2 mmHg
- Diastolic Blood Pressure: Median ([3]; 60 mg, Day 2 - Discharge): 77.0 mmHg
- Diastolic Blood Pressure: Mean ([3]; 60 mg, Day 8): 78.7 mmHg
- Diastolic Blood Pressure: Median ([3]; 60 mg, Day 8): 78.0 mmHg
- Diastolic Blood Pressure: Mean ([3]; 60 mg, Day 15): 77.5 mmHg
- Diastolic Blood Pressure: Median ([3]; 60 mg, Day 15): 78.0 mmHg
- Diastolic Blood Pressure: Change from Baseline, Mean ([3]; 60 mg, to Day 1, 15 minutes): 2.2 mmHg
- Diastolic Blood Pressure: Change from Baseline, Median ([3]; 60 mg, to Day 1, 15 minutes): 1.5 mmHg
- Diastolic Blood Pressure: Change from Baseline, Mean ([3]; 60 mg, to Day 1, 40 minutes): 2.4 mmHg
- Diastolic Blood Pressure: Change from Baseline, Median ([3]; 60 mg, to Day 1, 40 minutes): 2.0 mmHg
- Diastolic Blood Pressure: Change from Baseline, Mean ([3]; 60 mg, to Day 1, 60 minutes): 3.2 mmHg
- Diastolic Blood Pressure: Change from Baseline, Median ([3]; 60 mg, to Day 1, 60 minutes): 4.0 mmHg
- Diastolic Blood Pressure: Change from Baseline, Mean ([3]; 60 mg, to Day 1, 2 hours): −0.1 mmHg
- Diastolic Blood Pressure: Change from Baseline, Median ([3]; 60 mg, to Day 1, 2 hours): 0.0 mmHg
- Diastolic Blood Pressure: Change from Baseline, Mean ([3]; 60 mg, to Day 1, 4 hours): −0.6 mmHg
- Diastolic Blood Pressure: Change from Baseline, Median ([3]; 60 mg, to Day 1, 4 hours): 0.0 mmHg
- Diastolic Blood Pressure: Change from Baseline, Mean ([3]; 60 mg, to Day 1, 6 hours): −0.0 mmHg
- Diastolic Blood Pressure: Change from Baseline, Median ([3]; 60 mg, to Day 1, 6 hours): −1.0 mmHg
- Diastolic Blood Pressure: Change from Baseline, Mean ([3]; 60 mg, to Day 2 - Discharge): 1.5 mmHg
- Diastolic Blood Pressure: Change from Baseline, Median ([3]; 60 mg, to Day 2 - Discharge): 1.0 mmHg
- Diastolic Blood Pressure: Change from Baseline, Mean ([3]; 60 mg, to Day 8): 3.0 mmHg
- Diastolic Blood Pressure: Change from Baseline, Median ([3]; 60 mg, to Day 8): 3.0 mmHg
- Diastolic Blood Pressure: Change from Baseline, Mean ([3]; 60 mg, to Day 15): 1.7 mmHg
- Diastolic Blood Pressure: Change from Baseline, Median ([3]; 60 mg, to Day 15): 1.0 mmHg

— patent publication US20260027068A1, “METHODS OF ADM[…]-KETAMINE” (Perception Neuroscience, Inc., priority 2022, published 2026)
